Measured values published in patent US20240368132A1, “ROCK2 INHIBITORS AND USES THEREOF” (President and Fellows of Harvard College, priority 2021, published 2024).

How the values were obtained:
ROCK2 = biological target: T1, ROCK2 (Homo sapiens, UniProt O75116); assay: ROCK2 kinase assay (Reaction Biology Hot Spot kinase assay); type: biochemical; details: purified kinase, 33P-ATP (10 μM), P81 filter-binding method
T1 construct: purchased Reaction Biology
Protocol: (§1) ROCK2 and ROCK] kinase assays
(§2) ROCK2 and ROCK1 enzyme potencies were determined by Reaction Biology (www.reactionbiology.com) using their Hot Spot kinase Assay. The base reaction buffer for the assay was 20 mM Hepes (pH 7.5), 10 mM MgCl2, 1 mM EGTA, 0.01% Brij35, 0.02 mg/mL BSA, 0.1 mM Na3VO4, and 2 mM DTT with a 1% DMSO concentration. Required cofactors were added individually to each kinase reaction. The substrate was freshly prepared in the reaction buffer described above, and then cofactors were delivered. The purified kinase was added to the substrate solution and then gently mixed. Compounds were added from 100% DMSO into the kinase reaction mixture by Acoustic technology (Echo550; nanoliter range) and then incubated for 20 min at room temperature. ^33P-ATP (10 μM) was delivered to initiate the reaction, and then the mixture was incubated again for two hours at room temperature. […] Nat. Biotechnol. 2011 Oct. 30; 29(11):1039-45. doi: 10.1038/nbt.2017.
(§3) The compounds were categorized based on IC50 value as “+”, “++”, “+++”, and “++++”. The category “+” refers to compounds with ROCK IC50 value of >10 μM. The category “++” refers to compounds with a ROCK IC50 value of 10 to 3 μM. The category “+++” refers to compounds with ROCK IC50 value of 3 to 0.3 μM. The category “++++” refers to compounds with a ROCK IC50 value of <0.3 μM. “ND” refers to “not determined.” The compound of an “Example Number” is the final product of an Example entitled the Example Number.

ROCK1 = biological target: T2, ROCK1 (Homo sapiens, UniProt Q13464); assay: ROCK1 kinase assay (Reaction Biology Hot Spot kinase assay); type: biochemical; details: purified kinase, 33P-ATP (10 μM), P81 filter-binding method
T2 construct: purchased Reaction Biology
Protocol: as §1, §2, §3

T2 sequence (Q13464 whole entry): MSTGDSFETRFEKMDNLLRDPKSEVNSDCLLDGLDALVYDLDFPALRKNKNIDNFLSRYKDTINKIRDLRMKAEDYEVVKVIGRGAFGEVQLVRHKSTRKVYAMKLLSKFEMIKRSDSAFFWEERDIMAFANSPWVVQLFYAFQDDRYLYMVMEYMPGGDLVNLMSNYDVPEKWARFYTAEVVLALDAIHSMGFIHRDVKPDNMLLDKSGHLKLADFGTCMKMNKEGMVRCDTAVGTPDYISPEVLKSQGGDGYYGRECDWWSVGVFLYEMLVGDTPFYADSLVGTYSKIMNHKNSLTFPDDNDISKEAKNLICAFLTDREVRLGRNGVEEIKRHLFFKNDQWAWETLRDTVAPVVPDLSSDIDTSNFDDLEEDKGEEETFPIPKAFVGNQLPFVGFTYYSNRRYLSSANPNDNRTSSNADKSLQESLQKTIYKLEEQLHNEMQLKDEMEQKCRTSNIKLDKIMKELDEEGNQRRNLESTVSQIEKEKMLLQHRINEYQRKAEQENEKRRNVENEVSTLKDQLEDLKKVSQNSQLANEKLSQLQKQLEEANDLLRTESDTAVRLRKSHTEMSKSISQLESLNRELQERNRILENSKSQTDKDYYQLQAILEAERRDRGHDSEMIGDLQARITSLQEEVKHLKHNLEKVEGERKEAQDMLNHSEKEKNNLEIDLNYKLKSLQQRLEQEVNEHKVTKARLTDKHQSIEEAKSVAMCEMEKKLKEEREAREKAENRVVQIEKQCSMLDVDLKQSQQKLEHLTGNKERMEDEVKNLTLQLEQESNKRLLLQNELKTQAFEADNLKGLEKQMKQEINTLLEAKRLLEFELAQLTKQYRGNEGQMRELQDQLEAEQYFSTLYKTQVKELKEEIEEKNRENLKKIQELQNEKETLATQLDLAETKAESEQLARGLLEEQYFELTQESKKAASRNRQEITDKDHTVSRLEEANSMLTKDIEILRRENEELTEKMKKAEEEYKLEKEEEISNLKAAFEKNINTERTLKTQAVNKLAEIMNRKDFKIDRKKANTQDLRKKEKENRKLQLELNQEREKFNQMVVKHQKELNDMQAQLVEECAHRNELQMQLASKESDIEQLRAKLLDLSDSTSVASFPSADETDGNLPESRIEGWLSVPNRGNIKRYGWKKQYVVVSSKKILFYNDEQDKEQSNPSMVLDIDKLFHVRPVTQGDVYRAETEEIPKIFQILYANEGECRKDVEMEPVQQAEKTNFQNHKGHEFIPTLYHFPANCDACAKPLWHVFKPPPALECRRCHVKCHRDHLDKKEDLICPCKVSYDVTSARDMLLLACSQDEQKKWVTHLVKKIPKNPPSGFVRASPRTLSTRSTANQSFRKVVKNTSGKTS
T1 sequence (O75116 whole entry): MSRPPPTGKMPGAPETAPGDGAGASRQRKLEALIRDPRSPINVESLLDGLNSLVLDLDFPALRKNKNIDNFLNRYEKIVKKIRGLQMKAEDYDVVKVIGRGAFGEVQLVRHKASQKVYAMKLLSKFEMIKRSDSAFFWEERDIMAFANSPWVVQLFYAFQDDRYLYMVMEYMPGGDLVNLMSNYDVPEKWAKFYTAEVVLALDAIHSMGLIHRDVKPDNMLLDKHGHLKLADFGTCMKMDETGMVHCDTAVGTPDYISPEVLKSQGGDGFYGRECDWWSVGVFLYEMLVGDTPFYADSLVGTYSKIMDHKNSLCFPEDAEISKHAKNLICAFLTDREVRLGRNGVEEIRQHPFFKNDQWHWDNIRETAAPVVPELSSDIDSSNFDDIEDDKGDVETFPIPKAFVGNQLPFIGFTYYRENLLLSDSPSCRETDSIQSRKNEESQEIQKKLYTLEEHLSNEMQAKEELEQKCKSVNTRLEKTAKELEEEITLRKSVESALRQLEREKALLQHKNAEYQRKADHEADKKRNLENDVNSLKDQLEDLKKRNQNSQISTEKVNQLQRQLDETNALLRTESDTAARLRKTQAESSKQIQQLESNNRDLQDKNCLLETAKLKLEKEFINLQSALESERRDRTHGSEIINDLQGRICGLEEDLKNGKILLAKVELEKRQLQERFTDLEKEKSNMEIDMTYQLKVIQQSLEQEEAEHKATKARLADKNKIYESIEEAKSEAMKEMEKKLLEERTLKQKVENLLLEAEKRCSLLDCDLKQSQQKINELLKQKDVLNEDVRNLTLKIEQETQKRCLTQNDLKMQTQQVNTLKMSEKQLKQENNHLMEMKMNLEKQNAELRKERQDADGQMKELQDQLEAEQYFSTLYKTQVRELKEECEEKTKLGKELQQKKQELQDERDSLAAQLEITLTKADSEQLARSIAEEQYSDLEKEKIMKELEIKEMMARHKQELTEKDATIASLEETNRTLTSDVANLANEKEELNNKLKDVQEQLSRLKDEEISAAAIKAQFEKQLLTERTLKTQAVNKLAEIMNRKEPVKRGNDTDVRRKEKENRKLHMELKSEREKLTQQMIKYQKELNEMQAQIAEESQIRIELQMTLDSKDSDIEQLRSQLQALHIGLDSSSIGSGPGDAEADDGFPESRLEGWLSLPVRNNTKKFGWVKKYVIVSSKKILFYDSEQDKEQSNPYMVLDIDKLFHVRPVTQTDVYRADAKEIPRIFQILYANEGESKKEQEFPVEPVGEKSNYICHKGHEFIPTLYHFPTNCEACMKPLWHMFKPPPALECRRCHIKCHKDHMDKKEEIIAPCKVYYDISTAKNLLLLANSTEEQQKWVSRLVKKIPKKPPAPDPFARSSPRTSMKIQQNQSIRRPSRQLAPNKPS

Row | Compound | IC50 (ROCK2) [nM] | IC50 (ROCK1) [nM] | ROCK2 IC50 (ROCK2)
1 | Cn1cc(C(=O)Nc2cccc(-n3nc(Nc4ccc5[nH]ncc5c4Cl)c4ccncc43)c2)cn1 [Example 59] | < 300 | > 10000 | 
2 | Cn1cc(C(=O)Nc2cccc(-n3nc(Nc4ccc5[nH]ncc5c4Cl)c4cccnc43)c2)cn1 [Example 60] | < 300 | < 300 | 
3 | O=C(Nc1cccc(-c2noc(Nc3ccc4[nH]ncc4c3Cl)n2)c1)c1ccccc1F [Example 61, N-(3-(5-((4-chloro-1H-indazol-5-yl)amino)-1,2,4-oxadiazol-3-yl)phenyl)-2-fluorobenzamide] | > 10000 | < 300 | 
4 | Cn1cc(C(=O)Nc2cccc(-c3noc(Nc4ccc5[nH]ncc5c4Cl)n3)c2)cn1 [Example 62, N-(3-(5-((4-chloro-1H-indazol-5-yl)amino)-1,2,4-oxadiazol-3-yl)phenyl)-1-methyl-1H-pyrazole-4-carboxamide] | < 300 | < 300 | 
5 | Cn1cc(C(=O)Nc2cccc(-c3nc(Nc4ccc5[nH]ncc5c4Cl)no3)c2)cn1 [Example 63, N-(3-(3-((4-chloro-1H-indazol-5-yl)amino)-1,2,4-oxadiazol-5-yl)phenyl)-1-methyl-1H-pyrazole-4-carboxamide] | < 300 | < 300 | 
6 | O=C(Nc1cccc(-c2nc(Nc3ccc4[nH]ncc4c3Cl)no2)c1)c1ccccc1F [Example 64] | < 300 | 300 to 3000 | 
7 | Cn1cc(-c2nc3cc(-n4ccc(Nc5ccc6[nH]ncc6c5Cl)n4)ccc3o2)cn1 [Example 65, 4-chloro-N-(1-(2-(1-methyl-1H-pyrazol-4-yl)benzo[d]oxazol-5-yl)-1H-pyrazol-3-yl)-1H-indazol-5-amine] | < 300 | 300 to 3000 | 
8 | Cn1cc(-c2nc3cc(-n4nc(Nc5ccc6[nH]ncc6c5Cl)c5ccccc54)ccc3o2)cn1 [Example 66] | > 10000 | > 10000 | 
9 | Cn1cc(C(=O)Nc2cc(-c3nnc(Nc4ccc5[nH]ncc5c4Cl)o3)cn(C)c2=O)cn1 [Example 67, N-[5-[5-[(4-chloro-1H-indazol-5-yl)amino]-1,3,4-oxadiazol-2-yl]-1-methyl-2-oxo-3-pyridyl]-1-methyl-pyrazole-4-carboxamide] | < 300 | < 300 | 
10 | Cn1cc(-n2nc(Nc3ccc4[nH]ncc4c3Cl)c3ccccc32)cc(NC(=O)c2ccccc2F)c1=O [Example 68, N-(5-(3-((4-chloro-1H-indazol-5-yl)amino)-1H-indazol-1-yl)-1-methyl-2-oxo-1,2-dihydropyridin-3-yl)-2-fluorobenzamide] | < 300 | < 300 | 
11 | Cn1cc(C(=O)Nc2cc(-n3nc(Nc4ccc5[nH]ncc5c4Cl)c4ccccc43)cn(C)c2=O)cn1 [Example 69] | > 10000 | > 10000 | 
12 | COc1cc(-n2nc(C(F)(F)F)cc2Nc2ccc3[nH]ncc3c2Cl)ccc1OCC(=O)NC(C)C [Example 70, 2-(4-(5-((4-chloro-1H-indazol-5-yl)amino)-3-(trifluoromethyl)-1H-pyrazol-1-yl)-2-methoxyphenoxy)—N-isopropylacetamide] | 300 to 3000 | 300 to 3000 | 
13 | COc1cc(-c2nnc(Nc3ccc4[nH]ncc4c3Cl)o2)ccc1OCC(=O)NC(C)C [Example 72, 2-[4-[5-[(4-chloro-1H-indazol-5-yl)amino]-1,3,4-oxadiazol-2-yl]-2-methoxy-phenoxy]-N-isopropyl-acetamide] | < 300 | 300 to 3000 | 
14 | COc1cc(-c2nc(Nc3ccc4[nH]ncc4c3Cl)no2)ccc1OCC(=O)NC(C)C [Example 73, 2-[4-[3-[(4-chloro-1H-indazol-5-yl)amino]-1,2,4-oxadiazol-5-yl]-2-methoxy-phenoxy]-N-isopropyl-acetamide] | < 300 | 300 to 3000 | 
15 | Cn1cc(C(=O)Nc2cccc(-c3cc(Nc4ccc5[nH]ncc5c4Cl)no3)c2)cn1 [Example 74, N-(3-(3-((4-chloro-1H-indazol-5-yl)amino)isoxazol-5-yl)phenyl)-1-methyl-1H-pyrazole-4-carboxamide] | < 300 | < 300 | 
16 | CC(C)NC(=O)COc1ccc(-n2ccc(Nc3ccc4[nH]ncc4c3Cl)n2)cc1F [Example 75, 2-(4-(3-((4-chloro-1H-indazol-5-yl)amino)-1H-pyrazol-1-yl)-2-fluorophenoxy)—N-isopropylacetamide] | < 300 | 300 to 3000 | 
17 | COC(=O)CN1CCOc2cc(-n3cc(C)c(Nc4ccc5[nH]ncc5c4Cl)n3)ccc21 [Example 76, methyl 2-[7-[3-[(4-chloro-1H-indazol-5-yl)amino]-4-methyl-pyrazol-1-yl]-2,3-dihydro-1,4-benzoxazin-4-yl]acetate] | > 10000 | > 10000 | 
18 | Cc1cn(-c2ccc3c(c2)OCCN3CC(=O)NC(C)C)nc1Nc1ccc2[nH]ncc2c1Cl [Example 77, 2-[7-[3-[(4-chloro-1H-indazol-5-yl)amino]-4-methyl-pyrazol-1-yl]-2,3-dihydro-1,4-benzoxazin-4-yl]-N-isopropyl-acetamide] | 300 to 3000 | 3000 to 10000 | 
19 | Cc1cn(-c2ccc3c(c2)CCN(C(=O)NC(C)C)C3)nc1Nc1ccc2[nH]ncc2c1Cl [Example 78, 6-(3-((4-chloro-1H-indazol-5-yl)amino)-4-methyl-1H-pyrazol-1-yl)-N-isopropyl-3,4-dihydroisoquinoline-2(1H)-carboxamide] | < 300 | 300 to 3000 | 
20 | Cc1cn(-c2ccc3c(c2)CCN(C(=O)C2CC2)C3)nc1Nc1ccc2[nH]ncc2c1Cl [Example 79, [6-[3-[(4-chloro-1H-indazol-5-yl)amino]-4-methyl-pyrazol-1-yl]-3,4-dihydro-1H-isoquinolin-2-yl]-cyclopropyl-methanone] | < 300 | 3000 to 10000 | 
21 | Cc1cn(-c2ccc3c(c2)CCN(C(=O)C(C)C)C3)nc1Nc1ccc2[nH]ncc2c1Cl [Example 80, 1-[6-[3-[(4-chloro-1H-indazol-5-yl)amino]-4-methyl-pyrazol-1-yl]-3,4-dihydro-1H-isoquinolin-2-yl]-2-methyl-propan-1-one] |  | > 10000 | + +
22 | Cc1cn(-c2ccc3c(c2)CCN(C(=O)C2CCCC2)C3)nc1Nc1ccc2[nH]ncc2c1Cl [Example 81] | > 10000 | > 10000 | 
23 | Cc1cn(-c2ccc3c(c2)CCN(S(=O)(=O)C2CC2)C3)nc1Nc1ccc2[nH]ncc2c1Cl [Example 82] | < 300 | > 10000 | 
24 | Cc1cn(-c2ccc3c(c2)CCNC3=O)nc1Nc1ccc2[nH]ncc2c1Cl [Example 83, 6-(3-((4-chloro-1H-indazol-5-yl)amino)-4-methyl-1H-pyrazol-1-yl)-3,4-dihydroisoquinolin-1(2H)-one] | < 300 | < 300 | 
25 | Cc1cn(-c2ccc3c(c2)CCN(CC(C)C)C3=O)nc1Nc1ccc2[nH]ncc2c1Cl [Example 84, 6-[3-[(4-chloro-1H-indazol-5-yl)amino]-4-methyl-pyrazol-1-yl]-2-isobutyl-3,4-dihydroisoquinolin-1-one] | < 300 | 3000 to 10000 | 
26 | COc1cc(-n2cc(C)c(Nc3ccc4[nH]ncc4c3Cl)n2)ccc1C(=O)NC(C)C [Example 85, 4-(3-((4-chloro-1H-indazol-5-yl)amino)-4-methyl-1H-pyrazol-1-yl)-N-isopropyl-2-methoxybenzamide] | < 300 | < 300 | 
27 | COc1cc(-n2cc(C)c(Nc3ccc4[nH]ncc4c3Cl)n2)ccc1C(=O)NC1CCN(C)C1 (stereo not drawn) [Example 86] | < 300 | < 300 | 
28 | COc1cc(-n2cc(C)c(Nc3ccc4[nH]ncc4c3Cl)n2)ccc1C(=O)NC1CCCC1 [Example 87] | < 300 | 300 to 3000 | 
29 | COc1cc(-n2cc(C)c(Nc3ccc4[nH]ncc4c3Cl)n2)ccc1C(=O)NCC(F)(F)F [Example 88] | < 300 | > 10000 | 
30 | COc1cc(-n2cc(C)c(Nc3ccc4[nH]ncc4c3Cl)n2)ccc1C(=O)N1CCCC1 [Example 89] | 300 to 3000 | > 10000 | 
